The values that follow come from US20250154154A1 (Relay Binney Street, 2nd Floor, priority 2020, published 2025).

For one assay, the target named is SRC (Homo sapiens, UniProt P12931). As to the kind of experiment: SRC Biochemical Assay Protocol (microfluidic mobility shift assay, FLPeptide4 substrate). The gist of the method:
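Recombinant SRC (0.26 nM) preincubated 30 min at RT with compound (0.0017–100 μM) and 1.5 μM FLPeptide4, then 50 μM ATP added; 90 min reaction in HEPES pH 7.4, 10 mM MgCl2, 1% DMSO, EDTA-quenched. Phosphopeptide quantified by microfluidic mobility shift; IC50 from 4-parameter logistic fit.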

In another assay the test system is RBE cells. As to the kind of experiment: Cell Viability Protocol (CellTiterGlo), RBE cells. It is filed as cell-based. The conditions noted are these: RBE or SNU-1079 cells, 72 or 120 hour, cell line and time not given. The gist of the method: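 RBE cells plated at 1200/well in RPMI 1640 with 10% FBS, incubated 24 h, then dosed with compound from DMSO stocks and incubated 72 or 120 h at 37° C. CellTiterGlo luminescence normalised to DMSO control; IC50 from 4-parameter fit.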

Assay [1] relates to phospho-S6RP (Ser 235/236) in RBE cells. As to the kind of experiment: Cellular Proliferation Protocol (cellular phospho-S6RP HTRF), RBE cells. It is filed as cell-based. Conditions: 6 hours treatment, RBE or SNU-1079 cells, cell line not given. In a few lines:
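RBE cells, 2000/well, seeded 24 h before 6 h compound treatment at 37° C. Lysates were probed with a Eu-cryptate/d2 HTRF antibody sandwich for phospho-S6RP (Ser 235/236), incubated overnight at room temperature. Signal normalised to DMSO control and IC50 fitted to a 4-parameter curve.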
A general note: In TR-FRET formats the signal depends on donor and acceptor labels being close together.

Where a name gives a salt, the structure may show the parent alone.

On to `Cn1c(C#C[C@@H]2[C@H]3CN(C(=O)/C=C/CN4CCC(F)C4)C[C@@H]23)c(-c2ccc(Oc3cccc(F)c3)cc2)c2c(N)ncnc21` (stereo partly drawn) [II-234, (E)-1-((1R,5S,6s)-6-((4-amino-5-(4-(3-fluorophenoxy)phenyl)-7-methyl-7H-pyrrolo[2,3-d]pyrimidin-6-yl)ethynyl)-3-azabicyclo[3.1.0]hexan-3-yl)-4-(3-fluoropyrrolidin-1-yl)but-2-en-1-one], for which the 50% inhibitory concentration (IC50) (at SRC; in the assay with RBE cells; in assay [1] (6 h)) was 10 to 1000 nM throughout.

With `COCCn1c(C#CC2CN(C(=O)/C=C/CN(C)C)C2)c(-c2ccc(Oc3ccccc3)cc2)c2c(N)ncnc21` [II-191, (E)-1-(3-((4-amino-7-(2-methoxyethyl)-5-(4-phenoxyphenyl)-7H-pyrrolo[2,3-d]pyrimidin-6-yl)ethynyl)azetidin-1-yl)-4-(dimethylamino) but-2-en-1-one], the IC50 (at SRC; with RBE cells; in assay [1] (6 h)) was 10 to 1000 nM in each case.

Turning to `CC(C)n1c(C#C[C@@H]2[C@H]3CN(C(=O)/C=C/CN(C)C)C[C@@H]23)c(-c2ccc(F)c3c2OCO3)c2c(N)ncnc21` [II-293], the IC50 (at SRC; in the assay with RBE cells; in assay [1] (6 h)) was at most 10 nM throughout.

Regarding “1-((3S,4R)-4-(3-((4-amino-7-methyl-5-(4-(1-methyl-cyclopropoxy)phenyl)-7H-pyrrolo[2,3-d]pyrimidin-6-yl)ethynyl)azetidin-1-yl)-3-hydroxypiperidin-1-yl)prop-2-en-1-one [II-17]”, the figures for the IC50 (at SRC; in the assay with RBE cells; in assay [1]) were 10 to 1000 nM, at most 10 nM and at most 10 nM, respectively.

Take `CN(C)C/C=C/C(=O)N1C[C@@H]2[C@@H](C#Cc3c(-c4ccc(Oc5ccccc5)cc4)c4c(N)ncnc4n3C)[C@@H]2C1` [II-207]: the IC50 (on SRC; in the assay on RBE cells; in assay [1] (6 h)) was 10 to 1000 nM throughout.

Regarding `C=CC(=O)N1CC[C@@H](N2CC(C#Cc3c(-c4cc(OC)c(Cl)c(OC)c4)c4c(N)ncnc4n3C)C2)[C@@H](O)C1` [II-60], the concentration for half-maximal inhibition (IC50) (at SRC; with RBE cells; in assay [1]) was 10 to 1000 nM each time.

On to `C=CC(=O)N1CCC(C#Cc2c(-c3ccc(Oc4ccccc4)cc3)c3c(N)ncnc3n2C)CC1` [Example I-4], for which the IC50 (as a rule, the concentration that gives 50% inhibition) on SRC was 10 to 1000 nM; in the assay with RBE cells, 10 to 1000 nM; in assay [1] (6 h) it was at most 10 nM.

Turning to `C=CC(=O)N1CC[C@@H](N2CC(C#Cc3c(-c4ccc(C5CC5)cc4)c4c(N)ncnc4n3C)C2)[C@@H](O)C1` [II-69], the IC50 (at SRC; with RBE cells; in assay [1]) was 10 to 1000 nM in each case.

As for `C=CC(=O)N1CCC(N2CC(C#Cc3c(-c4ccc(Oc5ccccc5)cc4OC)c4cncnc4n3C)C2)CC1` [II-30], the IC50 on SRC lay in the range of 1000 to 10000 nM; in the assay with RBE cells, 10 to 1000 nM; in assay [1] (6 h) it was 10 to 1000 nM.

For the compound `C=CC(=O)NCC(=O)N1C[C@@H]2[C@@H](C#Cc3c(-c4ccc(Oc5ccccc5)cc4)c4c(N)ncnc4n3C)[C@@H]2C1` [II-211, N-[2-[(1R,5S,6S)-6-[2-[4-amino-7-methyl-5-(4-phenoxyphenyl)-7H-pyrrolo[2,3-d]pyrimidin-6-yl]ethynyl]-3-azabicyclo[3.1.0]hexan-3-yl]-2-oxoethyl]prop-2-enamide], the IC50 (at SRC; with RBE cells; in assay [1] (6 h)) was at most 10 nM each time.

On to `C=CC(=O)N1CCC(N2CC(C#Cc3c(-c4ccc(Oc5ccccc5)cc4)c4c(N)ncnc4n3C)C2)C[C@@H]1COC` (stereo partly drawn) [II-186, 1-((2R)-4-(3-((4-amino-7-methyl-5-(4-phenoxyphenyl)-7H-pyrrolo[2,3-d]pyrimidin-6-yl)ethynyl)azetidin-1-yl)-2-(methoxymethyl)piperidin-1-yl)prop-2-en-1-one], for which the IC50 (on SRC; with RBE cells; in assay [1] (6 h)) was at most 10 nM in each case.

As for `C/C=C/C(=O)N1CC(N2CCC(C#Cc3c(-c4ccc(Oc5ccccc5)cc4)c4c(N)ncnc4n3C(C)C)CC2)C1` [Example I-51], the results for the half-maximal inhibitory concentration (IC50) (at SRC; in the assay with RBE cells; in assay [1] (6 h)) were 10 to 1000 nM, 10 to 1000 nM and at most 10 nM, respectively.

For the compound `Cn1c(C#CC2CCCN(C(=O)/C=C/CN3CCC3)CC2)c(-c2ccc(Oc3ccccc3)cc2)c2c(N)ncnc21` (stereo not drawn) [II-182, (E)-1-(4-((4-amino-7-methyl-5-(4-phenoxyphenyl)-7H-pyrrolo[2,3-d]pyrimidin-6-yl)ethynyl)azepan-1-yl)-4-(azetidin-1-yl)but-2-en-1-one], the IC50 (on SRC; in the assay on RBE cells; in assay [1] (6 h)) was at most 10 nM throughout.

`C=CC(=O)N1CCC(N2CC(C#Cc3c(-c4cccc(OC)n4)c4c(N)ncnc4n3C)C2)CC1` [II-92]: the IC50 (at SRC; with RBE cells; in assay [1]) was 10 to 1000 nM each time.

On to `C=CC(=O)N1CCC(N2CC(C#Cc3c(-c4ccc(Cl)c(F)c4)c4c(N)ncnc4n3C)C2)CC1` [II-96], for which the IC50 (on SRC; in the assay on RBE cells; in assay [1]) was 10 to 1000 nM in each case.

Consider `C=CC(=O)N1CCC(N2CC(C#Cc3c(-c4ccc(Cl)c(OC)c4)c4c(N)ncnc4n3C)C2)C[C@H]1CO` (stereo partly drawn) [II-256], for which the IC50 (at SRC; with RBE cells; in assay [1] (6 h)) was 10 to 1000 nM throughout.

As for `Cn1c(C#CC2CCCN(C(=O)/C=C/CN3CCCCC3)CC2)c(-c2ccc(Oc3ccccc3)cc2)c2c(N)ncnc21` (stereo not drawn) [II-180, (E)-1-(4-((4-amino-7-methyl-5-(4-phenoxyphenyl)-7H-pyrrolo[2,3-d]pyrimidin-6-yl)ethynyl)azepan-1-yl)-4-(piperidin-1-yl)but-2-en-1-one formate], the IC50 at SRC was 10 to 1000 nM; in the assay with RBE cells it was 1000 to 10000 nM; in assay [1] (6 h) it was 1000 to 10000 nM.

For the compound `COc1cc(-c2c(C#C[C@@H]3[C@H]4CN(C(=O)/C=C/CN(C)C)C[C@@H]34)n(C)c3ncnc(N)c23)ccc1Oc1cccc(C)n1` [II-239, (E)-1-((1R,5S,6s)-6-((4-amino-5-(3-methoxy-4-((6-methylpyridin-2-yl)oxy)phenyl)-7-methyl-7H-pyrrolo[2,3-d]pyrimidin-6-yl)ethynyl)-3-azabicyclo[3.1.0]hexan-3-yl)-4-(dimethylamino) but-2-en-1-one], the IC50 (on SRC; in the assay on RBE cells; in assay [1] (6 h)) was 10 to 1000 nM throughout.

As for `C=CC(=O)N1C[C@@H]2[C@@H](C#Cc3c(-c4ccc(Oc5ccccc5)cc4Cl)c4c(N)ncnc4n3C)[C@@H]2C1` [II-48], the IC50 at SRC is 10 to 1000 nM; in the assay on RBE cells, at most 10 nM; in assay [1], at most 10 nM.

For the compound `C=CC(=O)N1C[C@@H]2[C@@H](C#Cc3c(-c4ccc(Cl)c(OC)n4)c4c(N)ncnc4n3C(C)C)[C@@H]2C1` [II-62], the IC50 on SRC was at most 10 nM; in the assay with RBE cells, 10 to 1000 nM; in assay [1], 10 to 1000 nM.

In the case of `C=CC(=O)N1CCC(N2CC(C#Cc3c(-c4ccc(C5CC5)c(OC)c4)c4c(N)ncnc4n3C)C2)CC1` [II-97], the IC50 (on SRC; with RBE cells; in assay [1]) was 10 to 1000 nM throughout.

Turning to `C=CC(=O)N1C[C@@H]2[C@@H](C#Cc3c(-c4ccc(Oc5ccccc5)c(OC)c4)c4c(N)ncnc4n3C)[C@@H]2C1` [II-27], the IC50 (at SRC; with RBE cells; in assay [1]) was at most 10 nM in each case.

Consider `C=CC(=O)N[C@H](CO)C(=O)N1CCC(C#Cc2c(-c3ccc(Oc4ccccc4)cc3)c3c(N)ncnc3n2C)CC1` [II-197], for which the IC50 (at SRC; with RBE cells; in assay [1] (6 h)) was 10 to 1000 nM each time.

`C=CC(=O)N1C[C@@H]2[C@@H](C#Cc3c(-c4ccc(Oc5cccc(C)n5)cc4OC)c4c(N)ncnc4n3CCCS(C)(=O)=O)[C@@H]2C1` [II-52]: the IC50 on SRC lay in the range of 10 to 1000 nM; with RBE cells it was 1000 to 10000 nM; in assay [1], 10 to 1000 nM.

Turning to `C=CC(=O)N1CC[C@@H](N2CC(C#Cc3c(-c4ccc(Cl)cn4)c4c(N)ncnc4n3C)C2)[C@@H](O)C1` [II-321], the IC50 (at SRC; in the assay on RBE cells; in assay [1]) was 10 to 1000 nM each time.

Consider `C=CC(=O)N1CCC(O)(C#Cc2c(-c3ccc(Oc4ccccc4)cc3)c3c(N)ncnc3n2C(C)C)CC1` [Example I-25], for which the IC50 (at SRC; in the assay on RBE cells; in assay [1] (6 h)) was at most 10 nM each time.

Consider `C=CC(=O)N1CCN([C@H]2C[C@@H](C#Cc3c(-c4ccc(Oc5ccccc5)cc4)c4c(N)ncnc4n3C)C2)C(=O)C1` [II-214, 4-acryloyl-1-((1s,3s)-3-((4-amino-7-methyl-5-(4-phenoxyphenyl)-7H-pyrrolo[2,3-d]pyrimidin-6-yl)ethynyl)cyclobutyl) piperazin-2-one], for which the IC50 (on SRC; in the assay with RBE cells; in assay [1] (6 h)) was at most 10 nM in each case.

For `C=CS(=O)(=O)N1CCC(N2CC(C#Cc3c(-c4ccc(Oc5ccccc5)c(OC)c4)c4c(N)ncnc4n3C)C2)CC1` [II-83], the IC50 on SRC is at most 10 nM; in the assay on RBE cells it was 10 to 1000 nM; in assay [1], 10 to 1000 nM.

Take `C=CC(=O)N1CC[C@@H](N2CC(C#Cc3c(-c4ccc(Oc5cccc(C)n5)cc4)c4c(N)ncnc4n3C)C2)[C@@H](F)C1` [II-201, 1-((3S,4R)-4-(3-((4-amino-7-methyl-5-(4-(6-methylpyridin-2-yloxy)phenyl)-7H-pyrrolo[2,3-d]pyrimidin-6-yl)ethynyl)azetidin-1-yl)-3-fluoropiperidin-1-yl)prop-2-en-1-one]: the IC50 (at SRC; with RBE cells; in assay [1] (6 h)) was 10 to 1000 nM each time.
